Results reported in patent publication US6967244B1 (priority 1988, dated 2005).
“Also recorded” adds a separate entry of the source. Like-named read-outs stand apart in the source and are kept apart here.

Experiments:
[1] = target: T1, receptor from mouse muscle alpha1, gamma, delta and beta2 mRNAs (Mus musculus, UniProt P02716+P04756+P04760); type: cell-based, mouse/rat
T1 construct: expressed in transfected cells; host or cells: Xenopus laevis oocytes injected with in vitro transcribed capped RNA
T1 sequence (P04760 23-519): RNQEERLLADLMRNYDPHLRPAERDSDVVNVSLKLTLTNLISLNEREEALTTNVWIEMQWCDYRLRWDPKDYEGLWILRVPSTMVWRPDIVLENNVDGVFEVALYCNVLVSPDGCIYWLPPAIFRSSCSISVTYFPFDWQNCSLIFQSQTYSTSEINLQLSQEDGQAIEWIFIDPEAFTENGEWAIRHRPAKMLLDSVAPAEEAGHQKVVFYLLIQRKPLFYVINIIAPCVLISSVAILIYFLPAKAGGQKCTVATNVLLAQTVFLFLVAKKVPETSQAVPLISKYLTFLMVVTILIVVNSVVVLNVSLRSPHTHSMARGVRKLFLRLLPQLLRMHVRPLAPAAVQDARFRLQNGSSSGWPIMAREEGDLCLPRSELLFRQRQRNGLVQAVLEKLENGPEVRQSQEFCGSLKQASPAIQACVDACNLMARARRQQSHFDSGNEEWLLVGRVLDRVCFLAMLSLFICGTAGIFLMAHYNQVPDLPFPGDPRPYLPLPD
T1 sequence (P12390 25-500, further chain): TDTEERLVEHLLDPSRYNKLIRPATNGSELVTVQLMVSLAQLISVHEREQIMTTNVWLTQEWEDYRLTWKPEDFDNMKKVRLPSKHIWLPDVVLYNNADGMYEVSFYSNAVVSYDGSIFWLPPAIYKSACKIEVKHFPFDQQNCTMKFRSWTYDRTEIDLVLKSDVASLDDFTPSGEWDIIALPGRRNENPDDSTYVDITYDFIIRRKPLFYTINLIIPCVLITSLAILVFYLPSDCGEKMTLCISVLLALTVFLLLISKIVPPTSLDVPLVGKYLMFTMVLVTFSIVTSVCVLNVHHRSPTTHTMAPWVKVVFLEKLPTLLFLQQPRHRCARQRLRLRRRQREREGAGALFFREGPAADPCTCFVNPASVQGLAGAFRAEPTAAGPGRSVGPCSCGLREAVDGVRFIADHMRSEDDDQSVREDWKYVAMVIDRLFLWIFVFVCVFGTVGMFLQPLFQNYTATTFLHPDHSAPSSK
T1 sequence (P04756 21-457): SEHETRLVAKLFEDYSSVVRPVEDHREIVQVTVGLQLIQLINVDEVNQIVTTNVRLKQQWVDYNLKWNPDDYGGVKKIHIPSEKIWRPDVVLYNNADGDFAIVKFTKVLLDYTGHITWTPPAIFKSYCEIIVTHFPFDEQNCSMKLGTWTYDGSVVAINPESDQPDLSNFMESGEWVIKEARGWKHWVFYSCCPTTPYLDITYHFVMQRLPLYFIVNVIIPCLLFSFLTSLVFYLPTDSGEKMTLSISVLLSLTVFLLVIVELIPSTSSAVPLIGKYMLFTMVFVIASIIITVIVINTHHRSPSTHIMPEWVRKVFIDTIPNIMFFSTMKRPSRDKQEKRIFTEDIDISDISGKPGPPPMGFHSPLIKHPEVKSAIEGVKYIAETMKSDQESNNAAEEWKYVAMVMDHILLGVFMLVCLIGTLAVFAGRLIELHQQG
T1 sequence (P02716 25-520): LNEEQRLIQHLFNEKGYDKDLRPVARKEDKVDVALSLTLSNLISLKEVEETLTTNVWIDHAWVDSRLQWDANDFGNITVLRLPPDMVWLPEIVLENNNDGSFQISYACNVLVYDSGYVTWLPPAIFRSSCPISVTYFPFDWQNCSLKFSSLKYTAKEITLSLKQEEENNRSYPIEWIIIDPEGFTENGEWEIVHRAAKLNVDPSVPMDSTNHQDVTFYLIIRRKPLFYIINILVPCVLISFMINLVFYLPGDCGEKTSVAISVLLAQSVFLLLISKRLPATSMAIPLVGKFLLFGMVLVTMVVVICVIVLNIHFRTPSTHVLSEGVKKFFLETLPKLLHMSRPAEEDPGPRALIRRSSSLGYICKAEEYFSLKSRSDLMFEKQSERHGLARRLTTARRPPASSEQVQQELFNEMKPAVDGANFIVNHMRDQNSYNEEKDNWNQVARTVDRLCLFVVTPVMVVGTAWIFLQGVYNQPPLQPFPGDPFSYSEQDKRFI
Experimental: (§1) To examine this hypothesis, a test was made to determine whether the beta2 subunit could substitute for one of the mouse muscle receptor subunits. This was done by injecting into Xenopus oocytes various combinations of mRNA encoding the beta2 subunit and the muscle receptor subunits (α1, β1, […], and δ).
(§2) Mature Xenopus laevis (Xenopus I, Madison, Wis.) were used as the source of oocytes. Oocytes were treated with 1 mg/ml type II collagenase (Sigma Chemical Co., St. Louis, Mo.) for two hours at room temperature. The ovarian epithelium and follicle cells were then removed by manual dissection. Each oocyte was injected with 0.5 to 5 ng of RNA transcribed and capped with diguanosine triphosphate in vitro, in a 50 nl volume of water. Injected oocytes were incubated in Barth's saline at 20° C. prior to electrophysiological recordings.
(§3) Recordings were obtained from oocytes placed in a groove at the base of a narrow perspex chamber of 0.5 ml volume. Oocytes were perfused at up to 40 ml/min. with a control solution that consisted of 10 mM HEPES (pH 7.2), 115 mM NaCl, 1.8 mM CaCl2 2.5 mM KCl, and […] atropine. Then oocytes were perfused with agonists or antagonists (added to the control perfusing solution), followed by a wash with control solution. Voltage recordings were made with the bridge circuit of the Dagan 8500 voltage clamp unit on oocytes injected 2–7 days previously. The recordings were obtained at room temperature (20–25° C.) with micropipettes filled with 3M KCl. A resting potential more negative than −30 mV was required for inclusion of a particular oocyte in these studies.
Experiment 1: Oocytes taken from the same animal were injected at the same time with equivalent amounts of the indicated mRNA combinations. […] Values presented are means±S.E. (n=6).
Values, presented are means±S.E. (n=5). The complete set of mouse muscle mRNAs were not tested in this experiment.

[2] = target: T2, nAChR formed after the injection of alpha2 and beta2 mRNAs (Rattus norvegicus, UniProt P12389+P12390); type: cell-based
T2 construct: only the HYP16 clone contains an open reading frame for the entire alpha2 protein; expressed in transfected cells; host or cells: Xenopus oocytes injected with in vitro transcribed mRNA
T2 sequence (P12390 25-500): as the sequence (P12390 25-500, further chain) above
T2 sequence (P12389 28-511): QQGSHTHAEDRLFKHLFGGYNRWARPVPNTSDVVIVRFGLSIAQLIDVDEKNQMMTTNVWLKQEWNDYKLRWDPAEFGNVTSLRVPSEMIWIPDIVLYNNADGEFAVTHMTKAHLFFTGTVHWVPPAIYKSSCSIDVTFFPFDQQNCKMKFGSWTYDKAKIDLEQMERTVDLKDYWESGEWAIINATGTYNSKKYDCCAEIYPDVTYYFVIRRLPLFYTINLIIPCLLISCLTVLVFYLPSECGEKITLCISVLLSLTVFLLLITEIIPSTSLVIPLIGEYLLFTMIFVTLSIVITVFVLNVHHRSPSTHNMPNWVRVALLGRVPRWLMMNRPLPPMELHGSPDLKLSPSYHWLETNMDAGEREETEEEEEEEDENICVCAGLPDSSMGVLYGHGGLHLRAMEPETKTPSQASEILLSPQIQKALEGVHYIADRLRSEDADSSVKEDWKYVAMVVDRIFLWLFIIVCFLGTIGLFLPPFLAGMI
Experimental: as §2, §3
The PCX49 clone is derived from the beta2 gene and is believed to encode a non-agonist-binding subunit. (Boulter, et al., 1987; Deneris, et al., 1988). […] We tested whether oocytes injected with either alpha2 (n=22) or beta2 (n=21) mRNA alone would produce a depolarizing response to ACh.

[3] = target: T3, alpha4 + beta2 neuronal nicotinic acetylcholine receptor (Rattus norvegicus, UniProt P09483+P12390); type: cell-based
T3 construct: linker-coded start (ATG and a few residues from a synthetic EcoRI/HindIII linker) (N); expressed in transfected cells; host or cells: Xenopus laevis oocytes injected with in vitro transcribed capped RNA
T3 sequence (P12390 25-500): as the sequence (P12390 25-500, further chain) above
T3 sequence (P09483 31-630): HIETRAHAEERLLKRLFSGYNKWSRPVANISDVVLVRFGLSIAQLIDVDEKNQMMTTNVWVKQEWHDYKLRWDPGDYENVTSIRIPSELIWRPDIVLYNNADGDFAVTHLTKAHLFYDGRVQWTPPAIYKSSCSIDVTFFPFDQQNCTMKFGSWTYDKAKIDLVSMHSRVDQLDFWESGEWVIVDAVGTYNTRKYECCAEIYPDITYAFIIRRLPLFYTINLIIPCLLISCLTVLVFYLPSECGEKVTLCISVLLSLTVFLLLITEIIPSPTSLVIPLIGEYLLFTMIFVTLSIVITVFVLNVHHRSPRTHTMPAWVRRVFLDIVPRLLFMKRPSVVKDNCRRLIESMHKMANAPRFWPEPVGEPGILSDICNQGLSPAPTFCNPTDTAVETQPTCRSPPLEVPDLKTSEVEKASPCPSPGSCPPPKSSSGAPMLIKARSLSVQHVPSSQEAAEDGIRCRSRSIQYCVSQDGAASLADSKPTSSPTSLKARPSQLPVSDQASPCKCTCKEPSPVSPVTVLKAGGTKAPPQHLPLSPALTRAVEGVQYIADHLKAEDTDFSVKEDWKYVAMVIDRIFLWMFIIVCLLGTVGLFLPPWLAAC

[4] = target: T4, alpha3 + beta2 neuronal nicotinic acetylcholine receptor (Rattus norvegicus, UniProt P04757+P12390); type: cell-based
T4 construct: a complete signal peptide and the entire mature protein; expressed in transfected cells; host or cells: Xenopus laevis oocytes injected with in vitro transcribed capped RNA
T4 sequence (P12390 25-500): as the sequence (P12390 25-500, further chain) above
T4 sequence (P04757 26-499): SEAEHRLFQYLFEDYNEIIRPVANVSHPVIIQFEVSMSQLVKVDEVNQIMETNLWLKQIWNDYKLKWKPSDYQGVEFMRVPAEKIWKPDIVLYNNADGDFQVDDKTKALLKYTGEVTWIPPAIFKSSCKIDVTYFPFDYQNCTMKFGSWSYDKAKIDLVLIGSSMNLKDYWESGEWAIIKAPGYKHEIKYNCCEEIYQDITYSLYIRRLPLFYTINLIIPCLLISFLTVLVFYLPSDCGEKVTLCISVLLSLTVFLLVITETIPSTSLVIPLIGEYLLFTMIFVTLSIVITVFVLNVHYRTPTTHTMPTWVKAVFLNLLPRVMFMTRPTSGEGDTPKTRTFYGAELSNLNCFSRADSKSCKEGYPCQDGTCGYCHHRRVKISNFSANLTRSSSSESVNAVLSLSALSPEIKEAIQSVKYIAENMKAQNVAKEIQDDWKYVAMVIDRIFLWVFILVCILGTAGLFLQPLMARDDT

[5] = target: mouse muscle nicotinic acetylcholine receptor α1β1γδ (Mus musculus, UniProt P02716+P04756+P04760); type: cell-based
mouse muscle nicotinic acetylcholine receptor α1β1γδ, sequence (P04760 23-519): as the sequence (P04760 23-519) above
mouse muscle nicotinic acetylcholine receptor α1β1γδ, sequence (P09690 24-501, further chain): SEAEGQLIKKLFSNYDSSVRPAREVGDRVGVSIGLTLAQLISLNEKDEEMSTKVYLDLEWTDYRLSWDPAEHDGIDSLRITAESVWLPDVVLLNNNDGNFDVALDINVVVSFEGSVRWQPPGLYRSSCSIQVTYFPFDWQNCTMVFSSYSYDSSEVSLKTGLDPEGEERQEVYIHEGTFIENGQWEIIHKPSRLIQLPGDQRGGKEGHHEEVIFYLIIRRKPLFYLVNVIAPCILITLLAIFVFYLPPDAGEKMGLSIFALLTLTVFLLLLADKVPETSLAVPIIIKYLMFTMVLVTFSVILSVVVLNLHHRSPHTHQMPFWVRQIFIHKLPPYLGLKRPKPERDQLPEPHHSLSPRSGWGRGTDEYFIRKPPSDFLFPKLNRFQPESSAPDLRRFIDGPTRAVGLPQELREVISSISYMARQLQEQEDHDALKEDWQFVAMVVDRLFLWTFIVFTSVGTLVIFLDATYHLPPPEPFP
mouse muscle nicotinic acetylcholine receptor α1β1γδ, sequence (P02716 25-520): as the sequence (P02716 25-520) above
mouse muscle nicotinic acetylcholine receptor α1β1γδ, sequence (P04756 21-457): as the sequence (P04756 21-457) above
Experimental: as §1, §2
as §3, with “The recordings were obtained at room temperature (20–25° C.) with micropipettes filled with 3M KCl. A resting potential more negative than −30 mV was required for inclusion of a particular oocyte in these studies.” left out

[6] = target: T5, PC12 cell receptor (Rattus norvegicus, UniProt P04757); settings: cited from earlier work
T5 construct: endogenous in cells; host or cells: PC12 (rat pheochromocytoma) cells
T5 sequence (P04757 26-499): as the sequence (P04757 26-499) above

## COc1cc2c3cc1Oc1cc(ccc1O)C[C@@H]1c4c(cc(OC)c(O)c4Oc4ccc(cc4)C[C@@H]3N(C)CC2)CC[N+]1(C)C [d-tubocurarine]
[1]; alpha1, beta2, gamma, delta mRNAs, 100 mM d-tubocurarine
  Block of depolarizations: blocked
[2]
  Blockade of the acetylcholine response by antagonist or toxin: could be blocked
[2]; Ach 5 μM + antagonist 100 μM, n=3
  Δ (mV) Agonist + Antagonist: +2.0 ± 0.4 mV

## C[N+](C)(C)CCCCCC[N+](C)(C)C [hexamethonium]
[2]
  Blockade of the acetylcholine response by antagonist or toxin: could be blocked
[2]; Ach 1 μM + antagonist 100 μM, n=4
  Δ (mV) Agonist + Antagonist: +0.4 ± 0.4 mV

## CN1CCCC1c1cccnc1 (centres unmarked) [nicotine]
[3]
  Depolarizing response to nicotine: strong and reproducible membrane depolarizations; also recorded: depolarizing responses
[1]
  Depolarizations elicited by nicotine: depolarizations could be elicited
[4]
  Depolarizing response to nicotine: strong and reproducible membrane depolarizations; also recorded: depolarizing responses
[2]
  Depolarizing response to nicotine: strong and reproducible depolarizing responses; also recorded: elicited a depolarizing response

## α-bungarotoxin
[3]
  Functional blockade of the acetylcholine response by toxin: resistant
  Δ, mV After Toxin: 32.7 ± 6.4 mV
[1]
  Block of the response to acetylcholine: completely blocked
[5]
  Block of the receptor by toxin: blocked
[6]
  Functional block of the receptor by toxin: neither of these receptors are functionally blocked
[4]
  Functional blockade of the acetylcholine response by toxin: neither of these receptors are functionally blocked; also recorded: resistant
  Δ, mV After Toxin: 24.8 ± 3.3 mV
[2]
  Δ, mV After Toxin: +32 ± 2 mV
